Assay results taken from the NIST ThermoML archive (doi:10.1021/je700713q).
± gives the expanded uncertainty stated by the source.

Conditions: Crystal; visual observation

Normal melting temperature: 229.00 ± 1 °C
SMILES: CC1=CC(=O)[N-]S(=O)(=O)O1.[K+] [acesulfame potassium]
